Data reported in patent US20230146675A1, “PYRIMIDO[5,4-d]PYRIMIDINE DERIVATIVES AS ENT INHIBITORS FOR THE TREATMENT OF CANCERS, AND COMBINATION THEREOF WITH ADENOSINE RECEPTOR ANTAGONISTS” (ITEOS BELGIUM SA, priority 2020, published 2023).

The compounds below were run against T1, human ENT1 (Homo sapiens, UniProt Q99808) (assay: ENT1 binding assay (competition with Sahenta-DY647 on JAR cells)). Conditions: binned IC50.
T1 sequence (Q99808 1-456): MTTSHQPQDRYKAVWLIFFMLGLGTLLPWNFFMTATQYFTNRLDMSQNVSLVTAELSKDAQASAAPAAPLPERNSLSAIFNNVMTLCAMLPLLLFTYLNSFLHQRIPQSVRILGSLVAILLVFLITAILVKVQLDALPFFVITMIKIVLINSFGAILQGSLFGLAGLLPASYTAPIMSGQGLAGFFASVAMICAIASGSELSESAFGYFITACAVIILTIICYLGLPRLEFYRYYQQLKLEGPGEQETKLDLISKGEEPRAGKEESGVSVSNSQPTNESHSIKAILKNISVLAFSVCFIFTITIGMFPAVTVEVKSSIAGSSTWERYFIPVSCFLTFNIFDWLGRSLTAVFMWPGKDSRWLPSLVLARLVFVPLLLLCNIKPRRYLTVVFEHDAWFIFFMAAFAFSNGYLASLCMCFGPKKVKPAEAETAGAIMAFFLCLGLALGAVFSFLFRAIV
Parameters: JAR cells expressing ENT1 were bought from ATCC; host or cells: JAR cells
Outline: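 JAR cells were incubated with test compounds and the fluorescent ligand Sahenta-DY647 in competition. Plates were washed twice by centrifugation (4 min, 400 rcf, 4 °C). Binding potency was derived from the final fluorescence.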

| Structure (SMILES) | IC50 [nM] |
| --- | --- |
| COCCN(CCOC)c1nc(N2CCC(OC)CC2)c2nc(N(CCOC)CCOC)nc(NCc3cnc(Cl)s3)c2n1 [Compound 160, N4-((2-chlorothiazol-5-yl)methyl)-N2,N2,N6,N6-tetrakis(2-methoxyethyl)-8-(4-methoxypiperidin-1-yl)pyrimido[5,4-d]pyrimidine-2,4,6-triamine] | 500 to 1000 |
| COCCN(CCOC)c1nc(N2CCC(OC)CC2)c2nc(N(CCOC)CCOC)nc(NCc3cc(C)no3)c2n1 [Compound 162, N2,N2,N6,N6-tetrakis(2-methoxyethyl)-8-(4-methoxypiperidin-1-yl)-N4-((3-methylisoxazol-5-yl)methyl)pyrimido[5,4-d]pyrimidine-2,4,6-triamine] | 500 to 1000 |
| COCCN(CCOC)c1nc(N2CCC(OC)CC2)c2nc(N(CCOC)CCOC)nc(OCc3cnn(C(C)C)c3)c2n1 [Compound 164, 4-((1-isopropyl-1H-pyrazol-4-yl)methoxy)-N2,N2,N6,N6-tetrakis(2-methoxyethyl)-8-(4-methoxypiperidin-1-yl)pyrimido[5,4-d]pyrimidine-2,6-diamine] | 500 to 1000 |
| COCCN(CCOC)c1nc(N2CCC(OC)CC2)c2nc(N(CCOC)CCOC)nc(NCCCO)c2n1 [Compound 175, 3-((2,6-bis(bis(2-methoxyethyl)amino)-8-(4-methoxypiperidin-1-yl)pyrimido[5,4-d]pyrimidin-4-yl)amino)propan-1-ol] | 500 to 1000 |
| COCCN(CCOC)c1nc(N2CCC(OC)CC2)c2nc(N(CCOC)CCOC)nc(NCCCn3ccnc3)c2n1 [Compound 176, N4-(3-(1H-imidazol-1-yl)propyl)-N2,N2,N6,N6-tetrakis(2-methoxyethyl)-8-(4-methoxypiperidin-1-yl)pyrimido[5,4-d]pyrimidine-2,4,6-triamine] | 500 to 1000 |
| COCCN(CCOC)c1nc(N2CCC(OC)CC2)c2nc(N(CCOC)CCOC)nc(NCCCc3ccccn3)c2n1 [Compound 177, N2,N2,N6,N6-tetrakis(2-methoxyethyl)-8-(4-methoxypiperidin-1-yl)-N4-(3-(pyridin-2-yl)propyl)pyrimido[5,4-d]pyrimidine-2,4,6-triamine] | 500 to 1000 |
| COCCN(CCOC)c1nc(N2CCC(OC)CC2)c2nc(N(CCOC)CCOC)nc(NCCC(C)(C)O)c2n1 [Compound 178, 4-((2,6-bis(bis(2-methoxyethyl)amino)-8-(4-methoxypiperidin-1-yl)pyrimido[5,4-d]pyrimidin-4-yl)amino)-2-methylbutan-2-ol] | 500 to 1000 |
| COCCN(CCOC)c1nc(N2CCC(OC)CC2)c2nc(N(CCOC)CCOC)nc(NCCCNS(C)(=O)=O)c2n1 [Compound 180, N-(3-((2,6-bis(bis(2-methoxyethyl)amino)-8-(4-methoxypiperidin-1-yl)pyrimido[5,4-d]pyrimidin-4-yl)amino)propyl)methanesulfonamide] | 500 to 1000 |
| COCCCCNc1nc(N(CCOC)CCOC)nc2c(N3CCC(OC)CC3)nc(N(CCOC)CCOC)nc12 [Compound 181, N4-(4-methoxybutyl)-N2,N2,N6,N6-tetrakis(2-methoxyethyl)-8-(4-methoxypiperidin-1-yl)pyrimido[5,4-d]pyrimidine-2,4,6-triamine] | 500 to 1000 |
| COCCN(CCOC)c1nc(N2CCC(OC)CC2)c2nc(N(CCOC)CCOC)nc(NCCCCCC#N)c2n1 [Compound 182, 6-((2,6-bis(bis(2-methoxyethyl)amino)-8-(4-methoxypiperidin-1-yl)pyrimido[5,4-d]pyrimidin-4-yl)amino)hexanenitrile] | 500 to 1000 |

Results, then the compound that gave them:

| IC50 [nM] | Structure (SMILES) |
| --- | --- |
| 100 to 500 | COCCN(CCOC)c1nc(N2CCC(OC)CC2)c2nc(N(CCOC)CCOC)nc(OCc3cccc(-c4noc(C)n4)c3)c2n1 [Compound 159, N2,N2,N6,N6-tetrakis(2-methoxyethyl)-4-(4-methoxypiperidin-1-yl)-8-((3-(5-methyl-1,2,4-oxadiazol-3-yl)benzyl)oxy)pyrimido[5,4-d]pyrimidine-2,6-diamine] |
| 100 to 500 | COCCN(CCOC)c1nc(N2CCC(OC)CC2)c2nc(N(CCOC)CCOC)nc(NCc3ccc(C)o3)c2n1 [Compound 161, N2,N2,N6,N6-tetrakis(2-methoxyethyl)-8-(4-methoxypiperidin-1-yl)-N4-((5-methylfuran-2-yl)methyl)pyrimido[5,4-d]pyrimidine-2,4,6-triamine] |
| 100 to 500 | COCCN(CCOC)c1nc(N2CCC(OC)CC2)c2nc(N(CCOC)CCOC)nc(NCc3cnn(C(C)C)c3)c2n1 [Compound 163, N4-((1-isopropyl-1H-pyrazol-4-yl)methyl)-N2,N2,N6,N6-tetrakis(2-methoxyethyl)-8-(4-methoxypiperidin-1-yl)pyrimido[5,4-d]pyrimidine-2,4,6-triamine] |
| < 100 | CCCN(CCC)c1nc(N(CCOC)CCOC)nc2c(N3CCC(OC)CC3)nc(N(CCOC)CCOC)nc12 [Compound 165, N2,N2,N6,N6-tetrakis(2-methoxyethyl)-8-(4-methoxypiperidin-1-yl)-N4,N4-dipropylpyrimido[5,4-d]pyrimidine-2,4,6-triamine] |
| 100 to 500 | COCCN(CCOC)c1nc(N(C)C2CCCC2)c2nc(N(CCOC)CCOC)nc(N3CCC(OC)CC3)c2n1 [Compound 166, N4-cyclopentyl-N2,N2,N6,N6-tetrakis(2-methoxyethyl)-8-(4-methoxypiperidin-1-yl)-N4-methylpyrimido[5,4-d]pyrimidine-2,4,6-triamine] |
| 100 to 500 | COCCN(CCOC)c1nc(N2CCC(OC)CC2)c2nc(N(CCOC)CCOC)nc(NC3CCCC3)c2n1 [Compound 167, N4-cyclopentyl-N2,N2,N6,N6-tetrakis(2-methoxyethyl)-8-(4-methoxypiperidin-1-yl)pyrimido[5,4-d]pyrimidine-2,4,6-triamine] |
| < 100 | COCCN(CCOC)c1nc(N2CCC(OC)CC2)c2nc(N(CCOC)CCOC)nc(N(C)CC(C)C)c2n1 [Compound 168, N4-isobutyl-N2,N2,N6,N6-tetrakis(2-methoxyethyl)-8-(4-methoxypiperidin-1-yl)-N4-methylpyrimido[5,4-d]pyrimidine-2,4,6-triamine] |
| < 100 | COCCN(CCOC)c1nc(N2CCC(OC)CC2)c2nc(N(CCOC)CCOC)nc(N(C)Cc3ccc(OC)c(OC)c3)c2n1 [Compound 169, N4-(3,4-dimethoxybenzyl)-N2,N2,N6,N6-tetrakis(2-methoxyethyl)-8-(4-methoxypiperidin-1-yl)-N4-methylpyrimido[5,4-d]pyrimidine-2,4,6-triamine] |
| < 100 | COCCN(CCOC)c1nc(N2CCC(OC)CC2)c2nc(N(CCOC)CCOC)nc(NCc3ccc(OC)c(OC)c3)c2n1 [Compound 170, N4-(3,4-dimethoxybenzyl)-N2,N2,N6,N6-tetrakis(2-methoxyethyl)-8-(4-methoxypiperidin-1-yl)pyrimido[5,4-d]pyrimidine-2,4,6-triamine] |
| 100 to 500 | COCCN(CCOC)c1nc(N2CCC(OC)CC2)c2nc(N(CCOC)CCOCCN3C(=O)c4ccccc4C3=O)nc(N3CCC(OC)CC3)c2n1 [Compound 172, 2-(2-(2-((6-(bis(2-methoxyethyl)amino)-4,8-bis(4-methoxypiperidin-1-yl)pyrimido[5,4-d]pyrimidin-2-yl)(2-methoxyethyl)amino)ethoxy)ethyl)isoindoline-1,3-dione] |
| 100 to 500 | COCCN(CCOC)c1nc(N2CCC(OC)CC2)c2nc(N(CCOC)CCOC)nc(NCCCCC#N)c2n1 [Compound 179, 5-((2,6-bis(bis(2-methoxyethyl)amino)-8-(4-methoxypiperidin-1-yl)pyrimido[5,4-d]pyrimidin-4-yl)amino)pentanenitrile] |
